According to PubChem BioAssay AID256 (DTP/NCI, 2004):
Values joined by “and” are separate entries in the source; they are usually repeats but may differ in a detail not shown here. Equal values may be shown once. Inconclusive results and toxic doses are left out. How the source made its calls: active means survival T/C of 150% or more; inactive means T/C below 125% in these data.

Tested on: CD2F1 mice, L1210 leukemia ip, survival T/C
Assay: NCI In Vivo Anticancer Drug Screen. Data for tumor model L1210 Leukemia (intraperitoneal) in CD2F1 (CDF1) mice
Conditions: higher = longer survival
Procedure, shortened: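 In this screen, transplantable tumors were grown in mice given either the compound or its vehicle. Results were expressed as the treated measurement relative to the control measurement.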

[1] = endpoint: mean survival time, dose: 50.0 mg/kg/injection, schedule: Q01DX001 (ip), vehicle: Klucel (hydroxypropylcellulose) (HPC)
[2] = endpoint: mean survival time, dose: 100.0 mg/kg/injection, schedule: Q01DX001 (ip), vehicle: Klucel (hydroxypropylcellulose) (HPC)
[3] = endpoint: mean survival time, dose: 100.0 mg/kg/injection, schedule: Q04DX003 (ip), vehicle: saline
[4] = endpoint: mean survival time, dose: 100.0 mg/kg/injection, schedule: Q04DX003 (ip), vehicle: saline with Tween-80
[5] = endpoint: mean survival time, dose: 200.0 mg/kg/injection, schedule: Q04DX003 (ip), vehicle: saline with Tween-80
[6] = endpoint: mean survival time, dose: 400.0 mg/kg/injection, schedule: Q04DX003 (ip), vehicle: saline with Tween-80
[7] = endpoint: mean survival time, dose: 200.0 mg/kg/injection, schedule: Q01DX001 (ip), vehicle: Klucel (hydroxypropylcellulose) (HPC)
[8] = endpoint: mean survival time, dose: 400.0 mg/kg/injection, schedule: Q01DX001 (ip), vehicle: Klucel (hydroxypropylcellulose) (HPC)
[9] = endpoint: mean survival time, dose: 100.0 mg/kg/injection, schedule: Q01DX001 (ip), vehicle: saline with Tween-80
[10] = endpoint: mean survival time, dose: 200.0 mg/kg/injection, schedule: Q01DX001 (ip), vehicle: saline with Tween-80
[11] = endpoint: mean survival time, dose: 75.0 mg/kg/injection, schedule: Q01DX001 (ip), vehicle: saline
[12] = endpoint: mean survival time, dose: 400.0 mg/kg/injection, schedule: Q01DX001 (ip), vehicle: saline with Tween-80

Measured: T/C

S=C1NCc2ccccc2N1
inactive: endpoint: mean survival time, dose: 25.0 mg/kg/injection, schedule: Q01DX001 (ip), vehicle: Klucel (hydroxypropylcellulose) (HPC) 101 % of control | [1] 101 % of control | [2] 112 % of control

Cn1c[n+](C)c2ncncc21
inactive: endpoint: mean survival time, dose: 3.8 mg/kg/injection, schedule: Q01DX005 (ip), vehicle: water 102 % of control | endpoint: mean survival time, dose: 7.5 mg/kg/injection, schedule: Q01DX005 (ip), vehicle: water 102 % of control | endpoint: mean survival time, dose: 15.0 mg/kg/injection, schedule: Q01DX005 (ip), vehicle: water 117 % of control | endpoint: mean survival time, dose: 30.0 mg/kg/injection, schedule: Q01DX005 (ip), vehicle: water 98 % of control | endpoint: mean survival time, dose: 60.0 mg/kg/injection, schedule: Q01DX005 (ip), vehicle: water 95 % of control

NC(=O)CCl
inactive: [3] 110 % of control

CC(=O)OCCC(C)Nc1ccnc2cc(Cl)ccc12 (configuration not stated)
inactive: endpoint: mean survival time, dose: 10.0 mg/kg/injection, schedule: Q01DX009 (ip), vehicle: saline with Tween-80 100 % of control | endpoint: mean survival time, dose: 20.0 mg/kg/injection, schedule: Q01DX009 (ip), vehicle: saline with Tween-80 102 % of control | endpoint: mean survival time, dose: 40.0 mg/kg/injection, schedule: Q01DX009 (ip), vehicle: saline with Tween-80 96 % of control | [4] 100 % of control

COc1ccc(C(=O)CC(C(=O)O)c2ccc3c(c2)OCO3)cc1OC (configuration not stated)
inactive: [4] 101 % of control | [5] 101 % of control | [6] 101 % of control

Cc1ccc(S(=O)(=O)OCCOc2ccc(C(C)(C)CC(C)(C)C)cc2)cc1
inactive: [2] 93 % of control | [7] 98 % of control | [8] 94 % of control

C=C(C)CS(=O)(=O)Cc1ccccc1
inactive: [1] 96 % of control | [2] 102 % of control | [7] 102 % of control

CC(=O)c1cccc(NS(=O)(=O)c2ccc(C)cc2)c1
inactive: [4] 97 % of control | [5] 99 % of control | [6] 99 % of control

CS(=O)(=O)OC(C(Br)CBr)C(OS(C)(=O)=O)C(Br)CBr (configuration not stated)
inactive: [2] 87 % of control | [7] 90 % of control | [8] 88 % of control

O=C(c1ccccc1)C1C(c2ccccc2)C2(CCCCC2=O)C(c2ccccc2)CC1(O)c1ccccc1 (configuration not stated)
inactive: [2] 96 % of control

N#CC(=N)C(C#N)C#N
inactive: endpoint: mean survival time, dose: 12.5 mg/kg/injection, schedule: Q04DX002 (ip), vehicle: saline with Tween-80 93 % of control | endpoint: mean survival time, dose: 25.0 mg/kg/injection, schedule: Q04DX002 (ip), vehicle: saline with Tween-80 93 % of control | endpoint: mean survival time, dose: 50.0 mg/kg/injection, schedule: Q04DX002 (ip), vehicle: saline with Tween-80 108 % of control

CC/C(=C/c1ccc(OC)cc1)[N+](=O)[O-]
inactive: endpoint: mean survival time, dose: 12.5 mg/kg/injection, schedule: Q01DX009 (ip), vehicle: Klucel (hydroxypropylcellulose) (HPC) 113 % of control | endpoint: mean survival time, dose: 25.0 mg/kg/injection, schedule: Q01DX009 (ip), vehicle: Klucel (hydroxypropylcellulose) (HPC) 102 % of control | endpoint: mean survival time, dose: 50.0 mg/kg/injection, schedule: Q01DX009 (ip), vehicle: Klucel (hydroxypropylcellulose) (HPC) 94 % of control

CCCCN(CCCC)c1cc(C(C)=O)c2ccccc2n1
inactive: endpoint: mean survival time, dose: 50.0 mg/kg/injection, schedule: Q04DX003 (ip), vehicle: saline 102 % of control | [3] 102 % of control | endpoint: mean survival time, dose: 200.0 mg/kg/injection, schedule: Q04DX003 (ip), vehicle: saline 102 % of control

CN(C=O)c1cc2c3c(c1)CCCN3CCC2
inactive: endpoint: mean survival time, dose: 50.0 mg/kg/injection, schedule: Q01DX009 (ip), vehicle: saline with Tween-80 100 % of control | [9] 105 % of control | [10] 104 % of control

COC(C[P+](Cc1ccccc1)(c1ccccc1)c1ccccc1)OC
inactive: endpoint: mean survival time, dose: 18.8 mg/kg/injection, schedule: Q04DX003 (ip), vehicle: saline 104 % of control | endpoint: mean survival time, dose: 37.5 mg/kg/injection, schedule: Q04DX003 (ip), vehicle: saline 103 % of control | [11] 101 % of control | endpoint: mean survival time, dose: 75.0 mg/kg/injection, schedule: Q04DX003 (ip), vehicle: saline 98 % of control

O=S(=O)(C(Br)CBr)C(Br)CBr (configuration not stated)
inactive: [4] 95 % of control

CN(C)CCP(c1ccccc1)c1ccccc1
inactive: endpoint: mean survival time, dose: 75.0 mg/kg/injection, schedule: Q01DX001 (ip), vehicle: other 102 % of control

Nc1ncnc2c1ncn2C1OC(C[Se](=O)c2ccccc2)C(O)C1O (configuration not stated)
inactive: endpoint: median survival time, dose: 12.5 mg/kg/injection, schedule: Q01DX005 (ip), vehicle: Klucel (hydroxypropylcellulose) (HPC) 102 % of control | endpoint: median survival time, dose: 25.0 mg/kg/injection, schedule: Q01DX005 (ip), vehicle: Klucel (hydroxypropylcellulose) (HPC) 106 % of control | endpoint: median survival time, dose: 50.0 mg/kg/injection, schedule: Q01DX005 (ip), vehicle: Klucel (hydroxypropylcellulose) (HPC) 103 % of control | endpoint: median survival time, dose: 100.0 mg/kg/injection, schedule: Q01DX005 (ip), vehicle: Klucel (hydroxypropylcellulose) (HPC) 103 % of control | endpoint: median survival time, dose: 200.0 mg/kg/injection, schedule: Q01DX005 (ip), vehicle: Klucel (hydroxypropylcellulose) (HPC) 104 % of control

CCCCCCCCCCCCCCCCCCCOc1ccc(OCCCCCCCCCCCC)cc1
inactive: [9] 93 % of control | [10] 89 % of control | [12] 88 % of control

ClC1CN2CCC1CC2 (configuration not stated)
inactive: endpoint: mean survival time, dose: 12.5 mg/kg/injection, schedule: Q01DX009 (ip), vehicle: saline 95 % of control | endpoint: mean survival time, dose: 25.0 mg/kg/injection, schedule: Q01DX009 (ip), vehicle: saline 90 % of control and 105 % of control | endpoint: mean survival time, dose: 50.0 mg/kg/injection, schedule: Q01DX009 (ip), vehicle: saline 93 % of control and 94 % of control

O=C(CC(O)(C(F)(F)F)C(F)(F)F)c1ccccc1Cl
inactive: endpoint: mean survival time, dose: 100.0 mg/kg/injection, schedule: Q01DX009 (ip), vehicle: saline with Tween-80 100 % of control | endpoint: mean survival time, dose: 200.0 mg/kg/injection, schedule: Q01DX009 (ip), vehicle: saline with Tween-80 115 % of control | endpoint: mean survival time, dose: 400.0 mg/kg/injection, schedule: Q01DX009 (ip), vehicle: saline with Tween-80 107 % of control

CS(=O)(=O)OCCCN(CCCOS(C)(=O)=O)c1ccc(C=Nc2ccc(-c3csc(COc4ccc(Br)cc4)n3)cc2)cc1
inactive: [9] 94 % of control | [10] 89 % of control | [12] 88 % of control

[CH3][Sn]([CH3])([Br])[CH2]CCBr
inactive: endpoint: mean survival time, dose: 0.39 mg/kg/injection, schedule: Q01DX009 (ip), vehicle: saline with Tween-80 100 % of control | endpoint: mean survival time, dose: 0.39 mg/kg/injection, schedule: Q01DX009 (ip), vehicle: saline 90 % of control | endpoint: mean survival time, dose: 0.78 mg/kg/injection, schedule: Q01DX009 (ip), vehicle: saline with Tween-80 100 % of control | endpoint: mean survival time, dose: 0.78 mg/kg/injection, schedule: Q01DX009 (ip), vehicle: saline 90 % of control | endpoint: mean survival time, dose: 1.56 mg/kg/injection, schedule: Q01DX009 (ip), vehicle: saline 97 % of control

NC(=O)c1c[n+](Cc2ccccc2)ccn1
inactive: [11] 104 % of control

CC1(C)CC2(OC2c2ccccc2)C(C)(O)c2ccccc21 (configuration not stated)
inactive: endpoint: mean survival time, dose: 100.0 mg/kg/injection, schedule: Q01DX009 (ip), vehicle: other 105 % of control | endpoint: mean survival time, dose: 200.0 mg/kg/injection, schedule: Q01DX009 (ip), vehicle: other 113 % of control | endpoint: mean survival time, dose: 400.0 mg/kg/injection, schedule: Q01DX009 (ip), vehicle: other 104 % of control

CN(C)c1ccn(C2OC(CO)C(O)C2SC(C)(C)C)c(=O)n1 (configuration not stated)
inactive: endpoint: median survival time, dose: 12.5 mg/kg/injection, schedule: Q01DX005 (ip), vehicle: saline 100 % of control | endpoint: median survival time, dose: 25.0 mg/kg/injection, schedule: Q01DX005 (ip), vehicle: saline 99 % of control | endpoint: median survival time, dose: 50.0 mg/kg/injection, schedule: Q01DX005 (ip), vehicle: saline 97 % of control | endpoint: median survival time, dose: 100.0 mg/kg/injection, schedule: Q01DX005 (ip), vehicle: saline 104 % of control | endpoint: median survival time, dose: 200.0 mg/kg/injection, schedule: Q01DX005 (ip), vehicle: saline 96 % of control

C1CN2CCN1CC2.O.[Cl][Pt][Cl]
inactive: endpoint: mean survival time, dose: 12.5 mg/kg/injection, schedule: Q01DX005 (ip), vehicle: water 97 % of control | endpoint: mean survival time, dose: 25.0 mg/kg/injection, schedule: Q01DX005 (ip), vehicle: water 92 % of control | endpoint: mean survival time, dose: 50.0 mg/kg/injection, schedule: Q01DX005 (ip), vehicle: water 92 % of control | endpoint: mean survival time, dose: 50.0 mg/kg/injection, schedule: Q04DX003 (ip), vehicle: water 102 % of control | endpoint: mean survival time, dose: 100.0 mg/kg/injection, schedule: Q01DX005 (ip), vehicle: water 96 % of control | endpoint: mean survival time, dose: 100.0 mg/kg/injection, schedule: Q04DX003 (ip), vehicle: water 94 % of control | endpoint: mean survival time, dose: 200.0 mg/kg/injection, schedule: Q01DX005 (ip), vehicle: water 96 % of control | endpoint: mean survival time, dose: 200.0 mg/kg/injection, schedule: Q04DX003 (ip), vehicle: water 95 % of control | endpoint: mean survival time, dose: 400.0 mg/kg/injection, schedule: Q04DX003 (ip), vehicle: water 107 % of control
